# Measurements as given in patent US10358442B2, “2-homopiperazine-1-yl-4H-1,3-benzothiazine-4-one derivatives and process for the preparation of 2-(homo)piperazine 1,3-benzothiazine-4-one hydrochlorides” (Ecole Polytechnique Federale De Lausanne (EPFL), priority 2015, dated 2019).
# Key:
# [1] = tested on: M. tuberculosis H37Rv; assay: resazurin reduction assay (MIC99), M. tuberculosis H37Rv; format: cell-based; conditions: Mycobacterium tuberculosis, BTZ-susceptible wild type strain
# Experimental: Activity against M. tuberculosis strains H37Rv and NBT1 was determined by the resazurin reduction assay (MIC99). The method is described in detail in: J. C. Palomino, A. Martin, M. Camacho, H. Guerra, J. Swings, F. Portaels, Antimicrob. Agents Chemother., 2002, 46, 2720-2722.
SMILES,MIC99 [1] [ng/mL],melting point [°C]
"Cl.O=c1nc(N2CCCN(CC3CCCCC3)CC2)sc2c([N+](=O)[O-])cc(C(F)(F)F)cc12 [Compound 1, 2-[4-(Cyclohexylmethyl)-1,4-diazepan-1-yl]-8-nitro-6-(trifluoromethyl)-4H-1,3-benzothiazin-4-one Hydrochloride]",1,269 to 271
"O=c1nc(N2CCN(CC3CCCCC3)CC2)sc2c([N+](=O)[O-])cc(C(F)(F)F)cc12 [PBTZ169, 2-[4-(cyclohexylmethyl)piperazin-1-yl]-8-nitro-6-(trifluoromethyl)-4H-1,3-benzothiazin-4-one, reference compound]",0.3,
CCCCN1CCN(c2nc(=O)c3cc(C(F)(F)F)cc([N+](=O)[O-])c3s2)CC1.Cl (hydrate or solvate),,239 to 241
"CCCCCCN1CCCN(c2nc(=O)c3cc(C(F)(F)F)cc([N+](=O)[O-])c3s2)CC1.Cl [Compound 3, 2-(4-Hexyl-1,4-diazepan-1-yl)-8-nitro-6-(trifluoromethyl)-4H-1,3-benzothiazin-4-one Hydrochloride]",0.2,249 to 251
"CCCCCN1CCCN(c2nc(=O)c3cc(C(F)(F)F)cc([N+](=O)[O-])c3s2)CC1.Cl [Compound 2, 8-Nitro-2-(4-pentyl-1,4-diazepan-1-yl)-6-(trifluoromethyl)-4H-1,3-benzothiazin-4-one Hydrochloride]",0.2,246 to 248
"Cl.O=c1nc(N2CCCN(CCc3ccccc3)CC2)sc2c([N+](=O)[O-])cc(C(F)(F)F)cc12 [Compound 7, 8-Nitro-2-[4-(2-phenylethyl)-1,4-diazepan-1-yl]-6-(trifluoromethyl)-4H-1,3-benzothiazin-4-one Hydrochloride]",0.8,
CCCCCCCN1CCN(c2nc(=O)c3cc(C(F)(F)F)cc([N+](=O)[O-])c3s2)CC1.Cl (hydrate or solvate),,254 to 256
"Cl.O=c1nc(N2CCCN(C3CCCCC3)CC2)sc2c([N+](=O)[O-])cc(C(F)(F)F)cc12 [Compound 6, 2-(4-Cyclohexyl-1,4-diazepan-1-yl)-8-nitro-6-(trifluoromethyl)-4H-1,3-benzothiazin-4-one Hydrochloride]",1,
"Cl.O=c1nc(N2CCCN(CCC3CCCCC3)CC2)sc2c([N+](=O)[O-])cc(C(F)(F)F)cc12 [Compound 4, 2-[4-(2-Cyclohexylethyl)-1,4-diazepan-1-yl]-8-nitro-6-(trifluoromethyl)-4H-1,3-benzothiazin-4-one Hydrochloride]",0.2,274 to 277
Cl.O=c1nc(N2CCN(CCCCOc3ccccc3)CC2)sc2c([N+](=O)[O-])cc(C(F)(F)F)cc12,,256 to 258
"Cl.O=c1nc(N2CCCN(CCc3ccccc3)CC2)sc2c([N+](=O)[O-])cc(C(F)(F)F)cc12 (hydrate or solvate) [Compound 7, 8-Nitro-2-[4-(2-phenylethyl)-1,4-diazepan-1-yl]-6-(trifluoromethyl)-4H-1,3-benzothiazin-4-one Hydrochloride]",,264 to 267
"Cl.O=c1nc(N2CCCN(C3CCCCC3)CC2)sc2c([N+](=O)[O-])cc(C(F)(F)F)cc12 (hydrate or solvate) [Compound 6, 2-(4-Cyclohexyl-1,4-diazepan-1-yl)-8-nitro-6-(trifluoromethyl)-4H-1,3-benzothiazin-4-one Hydrochloride]",,290 to 293
Cl.O=c1nc(N2CCN(CCC3CCCCC3)CC2)sc2c([N+](=O)[O-])cc(C(F)(F)F)cc12 (hydrate or solvate),,271 to 273
"CCCCCCCN1CCCN(c2nc(=O)c3cc(C(F)(F)F)cc([N+](=O)[O-])c3s2)CC1.Cl [Compound 5, 2-(4-Heptyl-1,4-diazepan-1-yl)-8-nitro-6-(trifluoromethyl)-4H-1,3-benzothiazin-4-one Hydrochloride]",0.3,256 to 258
